Values of other authors in patent US10092188B2, “Methods and compositions for identifying subjects at risk of developing stent thrombosis” (VisEn Medical, Inc., priority 2008, dated 2018).

Absorbance max (absorbance maximum of commercially available fluorochrome): 675 nm
εmax (extinction coefficient of commercially available fluorochrome): 250,000 M^−1cm^−1
Substance: CY™ 5.5
